Data: ChEMBL document CHEMBL1201862, “PubChem BioAssay data set” (2004)
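Where inhibition never reached the appropriate level, the endpoint shown equals the highest concentration tested. Otherwise, values were interpolated linearly from a five-concentration, 48-hour dose response in 96-well plates. The concentration for 50% growth inhibition is given as GI50.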 Calls of active or inactive are those of the source. Rule as the data show it: active = GI50 up to about 1.1 µM and inactive = higher. Numbered stars: 1 amine (or outer) side, 2 acyl side, 3 side chain; on linkers, the order of the positions; unused ones are H or OH. Square brackets hold non-standard residues; d marks the D form. Peptide text beside a SMILES is read from it. * marks the point of attachment. X30 = CC(=O)N(C)SCC(N[*:1])C(=O)[*:2]; Cbz = O=C(OCc1ccccc1)*; Bn = c1ccc(C*)cc1

Key:
Assay in all cases: inhibition of tumour cell growth, NCI panel, 48 h
COLO 205 = tested on: COLO 205
HCT-116 = tested on: HCT-116
HL-60 = tested on: HL-60
HT-29 = tested on: HT-29
LOX IMVI = tested on: LOX IMVI
MCF7 = tested on: MCF7
MDA-MB-231 = tested on: MDA-MB-231
MDA-MB-435 = tested on: MDA-MB-435
MOLT-4 = tested on: MOLT-4
Malme-3M = tested on: Malme-3M
OVCAR-3 = tested on: OVCAR-3
OVCAR-8 = tested on: OVCAR-8
PC-3 = tested on: PC-3
RXF 393 = tested on: RXF 393
SF-295 = tested on: SF-295
SK-MEL-28 = tested on: SK-MEL-28
SNB-19 = tested on: SNB-19
SNB-75 = tested on: SNB-75
SW-620 = tested on: SW-620
TK-10 = tested on: TK-10

Measured: GI50

O=C1CC(c2ccccc2)NCCCCN2CC(CN1)C(C(O)c1ccccc1)C2=O (stereo not given)
inactive: COLO 205 > 100 µM | HCT-116 > 100 µM | HL-60 > 100 µM | HT-29 > 100 µM | LOX IMVI > 100 µM | MCF7 > 100 µM | MDA-MB-231 > 100 µM | MDA-MB-435 > 100 µM | MOLT-4 > 100 µM | Malme-3M > 100 µM | OVCAR-3 > 100 µM | OVCAR-8 > 100 µM | PC-3 > 100 µM | RXF 393 > 100 µM | SF-295 > 100 µM | SK-MEL-28 > 100 µM | SNB-19 > 100 µM | SNB-75 95.5 µM | SW-620 > 100 µM | TK-10 > 100 µM

CC(=O)N1CN2C(=O)CCC2c2ccccc21 (stereo not given)
inactive: COLO 205 > 100 µM | HCT-116 > 100 µM | HL-60 > 10 µM | HT-29 > 100 µM | LOX IMVI > 100 µM | MCF7 > 100 µM | MDA-MB-231 > 100 µM | MDA-MB-435 > 100 µM | MOLT-4 > 100 µM | Malme-3M > 100 µM | OVCAR-3 > 100 µM | OVCAR-8 > 100 µM | PC-3 > 100 µM | RXF 393 > 100 µM | SF-295 > 100 µM | SK-MEL-28 > 100 µM | SNB-19 > 100 µM | SNB-75 > 100 µM | SW-620 > 100 µM | TK-10 > 100 µM

COc1ccc(C(O)CNC(=O)c2ccccc2)cc1 (stereo not given)
inactive: COLO 205 > 100 µM | HCT-116 > 100 µM | HL-60 > 100 µM | HT-29 > 100 µM | LOX IMVI > 100 µM | MCF7 > 100 µM | MDA-MB-231 > 100 µM | MDA-MB-435 > 100 µM | MOLT-4 > 100 µM | Malme-3M > 100 µM | OVCAR-3 > 100 µM | OVCAR-8 > 100 µM | PC-3 > 100 µM | RXF 393 > 100 µM | SF-295 > 100 µM | SK-MEL-28 > 100 µM | SNB-19 > 100 µM | SNB-75 > 100 µM | SW-620 > 100 µM | TK-10 > 100 µM

CC(=O)N(C)SCC(NC(=O)C(Cc1ccccc1)NC(=O)OCc1ccccc1)C(=O)NC(Cc1ccccc1)C(=O)NC(Cc1c[nH]c2ccccc12)C(=O)NC(CCCCNC(=O)OCc1ccccc1)C(=O)NC(C(=O)NC(CSN(C)C(C)=O)C(=O)NC(C(N)=O)C(C)OCc1ccccc1)C(C)OCc1ccccc1 (stereo not given) (Cbz-F[X30]FWK(Cbz)T(Bn)[X30]T(Bn)-NH2; configuration not given here)
inactive: COLO 205 > 100 µM | HCT-116 > 100 µM | HL-60 > 100 µM | HT-29 > 100 µM | LOX IMVI 86.5 µM | MCF7 86.5 µM | MDA-MB-231 35.3 µM | MDA-MB-435 > 100 µM | MOLT-4 > 100 µM | Malme-3M > 100 µM | OVCAR-3 > 100 µM | OVCAR-8 > 100 µM | PC-3 > 100 µM | RXF 393 > 100 µM | SF-295 > 100 µM | SK-MEL-28 > 100 µM | SNB-19 > 100 µM | SNB-75 > 100 µM | SW-620 > 100 µM | TK-10 > 100 µM
